Data from patent US20170027973A1, “MODULARION OF INVARIANT NATURAL KILLER T CELLS IN THE TREATMENT OF SEPSIS” (LONDON HEALTH SCIENCES CENTRE RESEARCH INC., priority 2014, published 2017).

Assays:
Format in all cases: in vivo, mouse
splenocyte apoptosis = test: Histology (H&E) and TUNEL staining of spleen, liver and omentum of septic B6 mice; details: for liver histopathology: among vehicle-, OCH- and KRN-treated mice; for lymphocytes in the omentum: histology; for histopathological scoring of degree of apoptosis in spleen: vehicle-treated: moderate
Source text: FIG. 6: Histopathology of septic B6 mice treated with glycolipid agonists of iNKT cells. […] Lymphocyte migration to the omentum is also ameliorated in OCH-treated mice compared to vehicle- and KRN7000-treated mice. There were no histopathological differences in the liver. Images are representative of 4 animals per treatment group (size bar, 50 μm). (b) Histopathological scoring of the degree of apoptosis observed within the spleens of sham and septic B6 mice treated with vehicle, KRN7000, or OCH (n=4 animals per treatment group). Apoptosis was defined histologically by the presence of cell clusters with nuclear shrinkage (karyorrhexis), dark eosinophilic cytoplasm, intact plasma membrane, and relative paucity of surrounding inflammatory cells within the splenic follicles on H&E staining. Scores assigned to each animal by a blinded independent pathologist were as follows: 0 for complete absence of apoptosis; 1 for mild presence of apoptosis (0-15% per follicle); 2 for moderate apoptosis (16-30% per follicle); and 3 for severe apoptosis (31-45% per follicle). ***p<0.0001 by two-tailed Mann Whitney U test.
Liver, spleen, and omentum from sham B6 mice, and vehicle-, OCH-, and KRN7000-treated septic B6 mice were fixed in 10% neutral buffered formalin, embedded in paraffin, sectioned, and stained with H&E or subjected to TUNEL staining using a commercially available kit (Calbiochem). At least four stained sections per spleen from four animals per treatment group were examined and scored for apoptosis by a board-certified veterinary pathologist (Welch) who was blinded to the study design. Apoptosis was defined histologically by the presence of cell clusters with nuclear shrinkage (karyorrhexis), dark eosinophilic cytoplasm, intact plasma membrane, and relative paucity of surrounding inflammatory cells within the splenic follicles on H&E staining (34). Scores assigned to each animal were as follows: 0 for complete absence of apoptosis; 1 for mild presence of apoptosis (0-15% per follicle); 2 for moderate apoptosis (16-30% per follicle); and 3 for severe apoptosis (31-45% per follicle). Photomicrographs were taken using a Nikon DS-Fi1 digital camera using NIS-elements software.

serum IL-4 and IFN-γ = test: Serum IL-4 and IFN-γ by ELISA after i.p. glycolipid injection into naïve B6 mice
Protocol: FIG. 10: Effect of glycolipid agonists on cytokine expression in naïve B6 mice, and on iNKT cells in septic B6 mice. (a) Naïve B6 mice were injected i.p. with 4 μg OCH or KRN7000 or C20:2, and bled at 2, 12, and 24 hours post-injection. Serum samples were assayed for IL-4 and IFN-γ by enzyme-linked immunosorbent assay (ELISA). […] Vehicle-treated mice had cytokine levels below limits of detection. (b) B6 mice were given an intraperitoneal injection of fecal slurry (500 μL of a 90 mg/mL solution) to induce IAS and concomitantly treated with 4 μg of vehicle, OCH, or KRN7000. After 24 hours, mice were sacrificed, and cell suspensions from the liver and spleen were stained for the flow cytometric detection of CD1d tetramer+ TCRβ+iNKT cells.
Lyophilized OCH was generously provided by the National Institutes of Health (NIH) Tetramer Core Facility (Emory University, Atlanta, Ga.). Each vial containing 0.2 mg of OCH was solubilized in a vehicle solution containing 1 mL of sterile distilled water, 0.5% Tween 20, 56 mg of sucrose and 7.5 mg of histidine, and stored as aliquots at 4° C. until use. KRN7000 (α-GalCer, C26:0/C18:0) was purchased from Funakoshi Co. Ltd. (Tokyo, Japan), solubilized at 1 mg/ml in dimethylsulphoxide (DMSO), and stored as aliquots at −20° C. until use (29); the control vehicle was 2% DMSO in phosphate-buffered saline (PBS). C20:2 was synthesized and used as previously published (30, 31). For in vivo experiments, mice were injected intraperitoneally (i.p.) with a single dose of glycolipid (4 μg/dose) (30) within twenty minutes after induction of IAS.
Cytokine concentrations were determined by commercially available specific ELISA assays for IL-4 and IFN-γ (Ready-Set-Go kits, eBioscience). ODs were measured on a Benchmark Microplate Reader (Bio-Rad) at a wavelength of 450 nm for both cytokines.

inflammatory cytokines = test: Multiplex cytokine quantification in sera and spleens of septic B6 mice
Protocol: FIG. 5: Cytokine levels in the sera and spleens of septic B6 mice. […] Concentrations of iNKT cell-specific cytokines are shown from sera (b) and spleen homogenates (c) of septic mice treated with vehicle, OCH, or KRN7000 (n=4-8 per group). Concentrations of cytokines are shown in pg/mL. *p<0.05, **p<0.01, ***p<0.001 by one-way ANOVA with post-hoc Tukey's multiple comparison test. Data are representative of at least three independent experiments.
Serum was analyzed by bead-based multiplex assay for 32 different cytokines, chemokines, and growth factors (Eve Technologies, Calgary, Alberta, Canada) including granulocyte-colony stimulating factor (G-CSF), granulocyte macrophage-colony stimulating factor (GM-CSF), interferon-gamma (IFN-γ), interleukin (IL)-1α, IL-1β, IL-2, IL-3, IL-4, IL-5, IL-6, IL-7, IL-9, IL-10, IL-12 (p40), IL-12 (p70), IL-13, IL-15, IL-17A, IP-10, keratinocyte chemo-attractant (KC), leukemia inhibitory factor (LIF), lipopolysaccharide-induced CXC chemokine (LIX), monocyte chemotactic protein (MCP)-1, monocyte-colony stimulating factor (M-CSF), monokine induced by gamma interferon (MIG), macrophage inflammatory protein (MIP)-1α, MIP-1β, MIP-2, Regulated on Activation, Normal T cell Expressed and Secreted (RANTES), tumour necrosis factor (TNF)-α, and vascular endothelial growth factor (VEGF). Multiplex data was visualized using a cytokine heat map that was generated using Matrix2png (33).

[1] = system: bacterial counts in blood and multiple organs; test: Microbial growth (CFU) from tissue homogenates and peripheral blood of septic mice; details: septic B6 mice; compared between vehicle, OCH and KRN7000 treatments
Protocol: Whole hearts, lungs (left and right), kidneys (left and right), spleen, and liver were removed from euthanized mice and homogenized in 5 mL of PBS. Homogenates were serially diluted 1:10 in PBS and plated on bovine heart infusion (BHI) agar. Plates were grown aerobically at 37° C. overnight to determine tissue colony-forming units (CFU). Intra-cardiac blood (10 μL) was collected in a heparinized syringe from the right ventricle, serially diluted 1:10 with PBS, and plated on BHIagar to determine blood CFU.

[2] = KRN7000 compared to OCH-treated group

| Structure (SMILES) | liver histopathology (splenocyte apoptosis) | apoptotic cells within the spleen (H&E, TUNEL) (splenocyte apoptosis; compared to vehicle- and KRN7000-treated mice) | lymphocytes in the omentum (splenocyte apoptosis) | histopathological scoring of degree of apoptosis in spleen (splenocyte apoptosis) | serum IFN-γ at 24 hours (serum IL-4 and IFN-γ; 4 μg i.p.) | time of peak of serum IFN-γ (serum IL-4 and IFN-γ; 4 μg i.p., ELISA) | time of peak of serum IL-4 (serum IL-4 and IFN-γ; 4 μg i.p., ELISA) | serum IL-4 at 12 to 24 hours (serum IL-4 and IFN-γ; 4 μg i.p., relative to 2 hour peak) | IL-4:IFN-γ ratio based on peak values (serum IL-4 and IFN-γ; OCH compared to KRN7000) | serum mean concentration of IL-17 (inflammatory cytokines; OCH compared to KRN7000-treated) | serum concentration of IL-13 (inflammatory cytokines; compared to KRN7000-treated and vehicle-treated) | microbial load (bacterial counts in blood and multiple organs) [1] | serum levels of IFN-γ between 12 and 24 hours (serum IL-4 and IFN-γ; 4 μg i.p.) | spleen IFN-γ (inflammatory cytokines; [2]) | spleen IL-3 (inflammatory cytokines; [2]) | spleen IL-4 (inflammatory cytokines; [2]) | spleen IL-17 (inflammatory cytokines; [2]) | spleen TNF-α (inflammatory cytokines; [2]) |
| --- | --- | --- | --- | --- | --- | --- | --- | --- | --- | --- | --- | --- | --- | --- | --- | --- | --- | --- |
| CCCCCCCCCCCCCCCCCCCCCCCC(=O)N[C@@H](COC1OC(CO)C(O)C(O)C1O)[C@H](O)[C@H](O)CCCCC (stereo partly shown) [OCH] | did not observe overt differences | significant reduction | fewer | mild (1 for mild presence of apoptosis (0-15% per follicle)) | almost undetectable | 12 h | 2 h | significantly reduced | higher | significantly lower | higher | did not worsen |  |  |  |  |  |  |
| CCCCCCCCCCCCCCCCCCCCCCCCCC(=O)N[C@@H](CO[C@H]1O[C@H](CO)[C@H](O)[C@H](O)[C@H]1O)[C@H](O)[C@H](O)CCCCCCCCCCCCCC [KRN7000, reference compound] | did not observe overt differences |  | significant increase | severe (3 for severe apoptosis (31-45% per follicle)) |  |  |  |  |  |  |  | similar | elevated | significantly elevated | significantly elevated | significantly elevated | significantly elevated | significantly elevated |
